The target in experiment [1] is T1, SSTR4 (Homo sapiens, UniProt P31391). The experiment in a line: cell-based.
Experimental: This cell-based assay measures the ability of compounds to inhibit forskolin stimulated cAMP in CHO-K1 cells overexpressing SSTR4. CHO-K1 cells overexpressing SSTR4 (CHO-SSTR4) are purchased from DiscoveRx (product code 95-0059C2). The CHO-SSTR4 cells are maintained in F12K media with 10% Fetal Bovine Serum (Hyclone), 1% Pen/Strep (Life Technologies), and 800 μg/mL G418 (Life Technologies). To perform the assay, 3000 cells are plated per well in white 384-well plate (Corning 3570) in 50 complete media and the cells are allowed to attach for 16 hours in a 37° C., 5% CO2 incubator. The next day, the culture media is removed from the cells and the cells are washed (added then removed) with Krebs Ringer Buffer (ZenBio, KRB-1000 mL). Test compounds are suspended in DMSO and diluted in stimulation buffer: Krebs Ringer Buffer plus 0.5% BSA (Roche), 300 μM IBMX (Sigma), and 350 nM forskolin (Sigma). The cells are incubated in 10 μL compound/stimulation buffer for 30 minutes at room temperature. Cellular cAMP levels are detected with a HTRF LANCE Ultra cAMP kit (Perkin Elmer, catalog number TRF0264).
The assay is performed in accordance with the manufacturer's instructions. Five μL of diluted Eu-W8044 labeled streptavidin (dilution: 1:50 in cAMP Detection Buffer) is added to each well. Then 5 μL of diluted biotin cAMP (dilution: 1:150 in cAMP Detection Buffer) is added to each well. The plates are covered and allowed to incubate for 60 minutes at room temperature on a shaker. HTRF (665 nm/615 nm) is read on a Perkin Elmer ENVISION plate reader. The pEC50 values are generated using Activity Base for Screening Data Management.
Experiment [2] deals with T1, SSTR4. As to the kind of experiment: SSTR4 I-125 somatostatin competition binding assay (CHO-K1 membranes). To be noted: competition with I-125 labeled somatostatin, membranes from CHO-K1 overexpressing SSTR4; read-out: SSTR4 Binding pIC50 (converted). Details: host or cells: CHO-K1. The source says:
SSTR4I-125 Somatostatin Competition Binding Assay
Membranes from CHO-K1 cells overexpressing SSTR4 are purchased from Perkin Elmer (catalog number ES-524-M400UA). […] The scintillator sheets are melted to filters using a heat block.

The target in experiment [3] is SSTR1 (Homo sapiens, UniProt P30872). The experiment in a line: biochemical.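 Further: competitive binding to membranes of CHO-K1 cells overexpressing SSTR1, incubated 60 min at room temperature, radioactivity read by scintillation counting after filtration.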
Experimental: SSTR1 I-125 Somatostatin Competition Binding Assay for Selectivity Versus SSTR1
Membranes from CHO-K1 cells overexpressing SSTR1 are purchased from Perkin Elmer (catalog number ES-520-M400UA). Test compounds are suspended in DMSO and then diluted in assay buffer (25 mM HEPES pH 7.4, 10 mM MgCl2, 1 mM CaCl2, 0.5% BSA) plus 0.4 nM I-125 labeled somatostatin (Perkin Elmer catalog number NEX389). […] Then 10 μg of SSTR1 membranes in 50 μL assay buffer are added per well. The plate is incubated for 60 minutes at room temperature. […] The contents of the assay plate are transferred to filters with a TomTech harvester and washed 5 times with 20 mM HEPES, 100 mM NaCl. […] The scintillator sheets are melted to the filters using a heat block. The filters are then read in a MicroBeta scintillation counter. Binding Ki curves are generated using Activity Base for Screening Data Management and the results are reported as pIC50.

Each structure is given as a SMILES string.
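Wherever EC50 is given: CHO-K1 cells overexpressing SSTR4, reduction of forskolin-driven cAMP after 30 min compound exposure at room temperature, cAMP read by HTRF LANCE Ultra kit.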

SSTR1, sequence (P30872 whole entry): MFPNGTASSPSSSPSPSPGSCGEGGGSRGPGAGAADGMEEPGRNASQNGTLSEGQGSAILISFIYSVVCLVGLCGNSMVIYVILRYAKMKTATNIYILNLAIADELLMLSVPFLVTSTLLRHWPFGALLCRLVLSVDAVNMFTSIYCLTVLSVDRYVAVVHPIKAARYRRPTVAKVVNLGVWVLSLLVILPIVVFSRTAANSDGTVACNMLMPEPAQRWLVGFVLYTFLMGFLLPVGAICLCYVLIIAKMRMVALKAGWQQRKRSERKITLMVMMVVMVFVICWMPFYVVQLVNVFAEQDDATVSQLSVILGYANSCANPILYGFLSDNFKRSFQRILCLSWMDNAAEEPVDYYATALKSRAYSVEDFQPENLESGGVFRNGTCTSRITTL
T1 sequence (P31391 whole entry): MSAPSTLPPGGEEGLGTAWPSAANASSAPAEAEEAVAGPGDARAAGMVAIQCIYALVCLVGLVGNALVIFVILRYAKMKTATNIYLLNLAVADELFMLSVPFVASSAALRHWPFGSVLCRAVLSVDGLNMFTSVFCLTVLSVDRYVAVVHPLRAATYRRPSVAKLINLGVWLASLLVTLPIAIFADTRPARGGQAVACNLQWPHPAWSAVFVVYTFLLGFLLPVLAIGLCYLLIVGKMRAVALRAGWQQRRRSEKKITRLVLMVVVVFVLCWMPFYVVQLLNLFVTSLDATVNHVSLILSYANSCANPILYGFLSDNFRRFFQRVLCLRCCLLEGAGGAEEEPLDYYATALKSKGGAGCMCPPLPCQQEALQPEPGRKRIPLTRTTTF

In experiment [1], `Cc1nnc(C(C)c2ccc(F)cc2)c(NCCN2CCC2)n1` (stereo not drawn) [Example 132, N-(2-(azetidin-1-yl)ethyl)-6-(1-(4-fluorophenyl)ethyl)-3-methyl-1,2,4-triazin-5-amine] showed an EC50 of 1.95 nM. Moreover, the IC50 in experiment [2] was 28.2 nM; in experiment [3], 47900 nM.
Taken in the same sequence, the figures for `CNC(=O)c1nc(C(C)c2ccc(F)cc2)c(NCCN2CCCC2)nc1C` (stereo not drawn) [Example 49, 6-(1-(4-fluorophenyl)ethyl)-N,3-dimethyl-5-((2-(pyrrolidin-1-yl)ethyl)amino)pyrazine-2-carboxamide] were 0.977 nM, 16.6 nM and 2570 nM.
For `Cc1nc(NCCN2CCCC2)c(C(C)c2ccc(F)cc2)nc1C(=O)NC1CC1` (stereo not drawn) [Example 62, N-cyclopropyl-6-(1-(4-fluorophenyl)ethyl)-3-methyl-5-((2-(pyrrolidin-1-yl)ethyl)amino)pyrazine-2-carboxamide] the same measures were 4.27 nM, 14.5 nM and 1410 nM.
For `Cc1nc(N[C@@H]2CCN(C)C[C@H]2C)c(Cc2ccc(F)cc2)nc1C(N)=O` (racemic) [Example 45, 5-((trans-1,3-dimethylpiperidin-4-yl)amino)-6-(4-fluorobenzyl)-3-methylpyrazine-2-carboxamide] the same measures were 38 nM, 129 nM and 18200 nM.
Take `CC(c1ccc(F)cc1)c1ncc(C(N)=O)nc1NCCN1CCCC1` (stereo not drawn) [Example 37, 5-(1-(4-fluorophenyl)ethyl)-6-((2-(pyrrolidin-1-yl)ethyl)amino)pyrazine-2-carboxamide]: a half-maximal response in experiment [1] (EC50) required 61.7 nM. Moreover, the IC50 in experiment [2] is 490 nM; in experiment [3], 4570 nM.
For `COCCNC(=O)c1nc(C(C)c2ccc(F)cc2)c(NCCN2CCCC2)nc1C` (stereo not drawn) [Example 52, 6-(1-(4-fluorophenyl)ethyl)-N-(2-methoxyethyl)-3-methyl-5-((2-(pyrrolidin-1-yl)ethyl)amino)pyrazine-2-carboxamide] the same measures were 1.86 nM, 16.2 nM and 1620 nM.
Taken in the same sequence, the figures for `Cc1nc(NCCN2CCCC2)c(C(C)c2ccc(F)cc2)nc1C(=O)N1CC[C@@H](F)C1` (stereo partly drawn) [Example 74, (6-(1-(4-fluorophenyl)ethyl)-3-methyl-5-((2-(pyrrolidin-1-yl)ethyl)amino)pyrazin-2-yl)((R)-3-fluoropyrrolidin-1-yl)methanone] were 3.24 nM, 63.1 nM and 4370 nM.
For `C[C@H](c1ccc(F)cc1)c1nc(C(N)=O)cnc1NCCN1CCCC1` (single isomer, unassigned) [Example 21] the same measures were 5.13 nM, 24.5 nM and 2820 nM.
In turn, `CNC(=O)c1cnc(NCCN2CCCC2)c(C(C)c2ccc(F)cc2)n1` (stereo not drawn) [Example 22, 6-(1-(4-fluorophenyl)ethyl)-N-methyl-5-((2-(pyrrolidin-1-yl)ethyl)amino)pyrazine-2-carboxamide] gave an EC50 in experiment [1] of 3.72 nM. Moreover, the IC50 is 77.6 nM in experiment [2] and 10500 nM in experiment [3].
For `Cc1nnc([C@@H](C)c2ccccc2)c(N[C@H]2CCN(C)C2)n1` (single isomer, unassigned) [Example 152] the same measures were 26.9 nM, 204 nM and 10000 nM.
Taken in the same sequence, the figures for `CO[C@H]1C[C@H](NC(=O)c2nc(C(C)c3ccc(F)cc3)c(NCCN3CCCC3)nc2C)C1` (stereo partly drawn) [Example 71, 6-(1-(4-fluorophenyl)ethyl)-N-(trans-3-methoxycyclobutyl)-3-methyl-5-((2-(pyrrolidin-1-yl)ethyl)amino)pyrazine-2-carboxamide] were 4.27 nM, 31.6 nM and 2450 nM.
In experiment [1], `C[C@H](c1ccc(F)cc1)c1nc(C(=O)N[C@H]2CCOC2)cnc1NCCN1CCCC1` [Example 12, 6-((R)-1-(4-fluorophenyl)ethyl)-5-((2-(pyrrolidin-1-yl)ethyl)amino)-N-((S)-tetrahydrofuran-3-yl)pyrazine-2-carboxamide] had an EC50 of 15.1 nM. Further, the figures for the IC50 in experiment [2] and in experiment [3] were 162 nM and 5620 nM, respectively.
Taken in the same sequence, the figures for `Cc1nnc([C@H](C)c2ccccc2)c(N[C@@H]2CCN(C)C2)n1` (single isomer, unassigned) [Example 149] were 39.8 nM, 174 nM and 12900 nM.
Taken in the same sequence, the figures for `Cc1nc(NCCN2CCCC2)c(C(C)c2ccc(F)cc2)nc1C(=O)N1CC[C@H](F)C1` (stereo partly drawn) [Example 66, (6-(1-(4-fluorophenyl)ethyl)-3-methyl-5-((2-(pyrrolidin-1-yl)ethyl)amino)pyrazin-2-yl)((S)-3-fluoropyrrolidin-1-yl)methanone] were 4.17 nM, 36.3 nM and 3470 nM.
Taken in the same sequence, the figures for `C[C@H](c1ccc(F)cc1)c1nc(C(=O)N[C@@H]2CCOC2)cnc1NCCN1CCCC1` [Example 13, 6-((R)-1-(4-fluorophenyl)ethyl)-5-((2-(pyrrolidin-1-yl)ethyl)amino)-N-((R)-tetrahydrofuran-3-yl)pyrazine-2-carboxamide] were 11.7 nM, 162 nM and 4070 nM.
`Cc1nnc([C@@H](C)c2ccc(F)cc2)c(NCCN2CCC2)n1` (single isomer, unassigned) [Example 134] gave an EC50 in experiment [1] of 2.19 nM. Also, the IC50 in experiment [2] was 19.5 nM; in experiment [3] it was 15100 nM.
Taken in the same sequence, the figures for `Cc1nc(NCCN2CCCC2)c(C(C)c2ccc(F)cc2)nc1C(=O)N(C)C` (stereo not drawn) [Example 48, 6-(1-(4-fluorophenyl)ethyl)-N,N,3-trimethyl-5-((2-(pyrrolidin-1-yl)ethyl)amino)pyrazine-2-carboxamide] were 0.776 nM, 11.7 nM and 9550 nM.
The molecule `Cc1nc(NCCN2CCCC2)c(C(C)c2ccc(F)cc2)nc1C(=O)N(C)C(C)C` (stereo not drawn) [Example 67, 6-(1-(4-fluorophenyl)ethyl)-N-isopropyl-N,3-dimethyl-5-((2-(pyrrolidin-1-yl)ethyl)amino)pyrazine-2-carboxamide] showed an EC50 in experiment [1] of 1.7 nM. The values for the IC50 in experiment [2] and in experiment [3] were 10 nM and 3630 nM, respectively.
Taken in the same sequence, the figures for `Cc1cccc(Cc2nc(C(N)=O)c(C)nc2NCCN2CCCC2)c1` [Example 41, 3-methyl-6-(3-methylbenzyl)-5-((2-(pyrrolidin-1-yl)ethyl)amino)pyrazine-2-carboxamide] were 2.09 nM, 23.4 nM and 13200 nM.
Turning to `Cc1nc(NCCN2CCC2)c(Cc2ccc(F)cc2)nc1C#N` [Example 96, 5-((2-(azetidin-1-yl)ethyl)amino)-6-(4-fluorobenzyl)-3-methylpyrazine-2-carbonitrile], the EC50 in experiment [1] was 27.5 nM. In addition, the IC50 in experiment [2] was 61.7 nM; in experiment [3] it was 11000 nM.
Taken in the same sequence, the figures for `Cc1cccc(Cc2nc(C(=O)N(C)C)c(C)nc2NCCN2CCCC2)c1` [Example 39, N,N,3-trimethyl-6-(3-methylbenzyl)-5-((2-(pyrrolidin-1-yl)ethyl)amino)pyrazine-2-carboxamide] were 4.27 nM, 41.7 nM and 26900 nM.
For `CNC(=O)c1cnc(NCCN2CCCC2)c([C@H](C)c2ccc(F)cc2)n1` (single isomer, unassigned) [Example 24] the same measures were 18.6 nM, 45.7 nM and 5130 nM.
Taken in the same sequence, the figures for `CC(c1ccc(F)cc1)c1nc(-c2nccs2)cnc1NCCN1CCCC1` (stereo not drawn) [Example 125, 3-(1-(4-fluorophenyl)ethyl)-N-(2-(pyrrolidin-1-yl)ethyl)-5-(thiazol-2-yl)pyrazin-2-amine] were 42.7 nM, 38 nM and 1230 nM.
`COc1cccc(Cc2nc3cccc(C)c3nc2NCCN2CCC2)c1` (single isomer, unassigned) [Example 4, N-(2-(azetidin-1-yl)ethyl)-3-(3-methoxybenzyl)-8-methylquinoxalin-2-amine] had an EC50 in experiment [1] of 63.1 nM. Further, the values for the IC50 in experiment [2] and in experiment [3] were 38 nM and 1550 nM, respectively.
For `Cc1nc(Cc2ccc(F)cc2)c(NCCN2CCC2)nc1C` [Example 78, N-(2-(azetidin-1-yl)ethyl)-3-(4-fluorobenzyl)-5,6-dimethylpyrazin-2-amine] the same measures were 12.6 nM, 77.6 nM and 28200 nM.
For `Cc1nc(NCCN2CCCC2)c(C(C)c2ccc(F)cc2)nc1C(=O)N[C@H]1C[C@@H](F)C1` (stereo partly drawn) [Example 64, N-(cis-3-fluorocyclobutyl)-6-(1-(4-fluorophenyl)ethyl)-3-methyl-5-((2-(pyrrolidin-1-yl)ethyl)amino)pyrazine-2-carboxamide] the same measures were 13.8 nM, 33.9 nM and 1260 nM.
For `CC(c1ccc(F)cc1)c1nc(C(N)=O)cnc1NCCN1CCCC1` (stereo not drawn) [Example 19, 6-(1-(4-fluorophenyl)ethyl)-5-((2-(pyrrolidin-1-yl)ethyl)amino)pyrazine-2-carboxamide] the same measures were 5.37 nM, 50.1 nM and 5750 nM.
With `CC(c1ccc(F)cc1)c1nc(-c2nccn2C)cnc1NCCN1CCCC1` (stereo not drawn) [Example 124, 3-(1-(4-fluorophenyl)ethyl)-5-(1-methyl-1H-imidazol-2-yl)-N-(2-(pyrrolidin-1-yl)ethyl)pyrazin-2-amine], the EC50 in experiment [1] was 36.3 nM. For the same molecule, the IC50 in experiment [2] is 245 nM; in experiment [3] it was 3470 nM.
For `C[C@H](c1ccc(F)cc1)c1nc(C(N)=O)cnc1N[C@@H]1CCN(C)C1` (single isomer, unassigned) [Example 30] the same measures were 49 nM, 912 nM and 12300 nM.

Source of the values: US12428403B2, “N-(heterocyclyl and heterocyclylalkyl)-3-benzylpyridin-2-amine derivatives as SSTR4 agonists” (Takeda Pharmaceutical Company Limited, priority 2020, dated 2025).
